{
  "source": "paper PMC7433010",
  "about": "“Exploration of multi‐target effects of 3‐benzoyl‐5‐hydroxychromen‐2‐one in Alzheimer’s disease cell and mouse models” (Aging Cell, 2020)",
  "key": {"[1]": {"test_system": "STZ‐induced hyperglycemic 3 × Tg‐AD mice", "test": "Morris water maze task in STZ‐treated 3 × Tg‐AD mice", "type": "in vivo, mouse", "conditions": "for Morris water maze latency to hidden platform: 40 mg/kg i.p.", "experimental": "(§1) Mice harboring APPSwe, PS1M146V, and […] transgenes (3×Tg-AD) (Oddo et al., 2003) were purchased from the Jackson Laboratory (004807; Bar Harbor, ME, USA). Six-month-old male homozygous 3×Tg-AD mice were group housed at 20–25°C and 60% relative humidity under a daily 12-h light/12-h dark cycle, with assess to food and water ad libitum. Mice were randomly divided into 3 groups: – streptozocin (STZ), STZ, and STZ/LM-031 (n = 10 per group). STZ-induced hyperglycemia was used to accelerate the development of AD phenotype (Chen et al., 2014). Briefly, the mice were fasted for 12 h each day prior to intraperitoneal (i.p.) injection of STZ ([…]; Sigma-Aldrich) or vehicle (0.1 M sodium citrate pH4.5) for 4 times (days 2, 3, 9, and 10) (Chen et al., 2019). Mouse body weight was measured and blood glucose level was measured on days 1, 8, 15, 22, and 29 using a blood glucose meter (Bioland Technology, Taipei, Taiwan). LM-031 (40 mg/kg) or vehicle (DMSO:Cremophor EL:0.9% saline = 1:2:7) was intraperitoneally injected every day for 22 days from days 15 to 36. All animal procedures were ethically approved by the Institutional Animal Care and Use Committee of National Taiwan Normal University, Taipei, Taiwan (Permit Number: 103002) and were conducted in compliance with the ARRIVE (Animal Research: Reporting In Vivo Experiments) guidelines.\nThe water maze apparatus consisted of a circular pool with diameter 100 cm and height 76 cm, a submerged platform 1 cm below the water surface, four types of cues providing distal landmarks in the testing room, and a video camera suspended 250 cm above the center of the pool and connected to a video tracking system. The pool was filled up with water (24–26°C, 35 cm high) rendered opaque by the addition of nontoxic white paint. Mice relied on external cues to find the hidden platform in opaque water. One day prior to spatial training, all mice underwent pretraining to examine animals’ swimming ability and to acclimatize them to the pool. For pretraining (day 29), each mouse was placed in the pool to swim for 60 sec. After three trials, a platform was placed in the center of the pool and the mouse was allowed to remain there for 20 sec. For training (days 30–33), the platform was placed in a quadrant and each mouse received four trials per day for 4 consecutive days, with a cue signaling the platform position. The submerged platform remained there and entry points changed semi-randomly throughout all trials. The trial ended either when the mouse climbed onto the platform or when 60 seconds had elapsed. At the end of each trial the mouse was placed on the platform and faced the cue for 20 sec, learning where the platform was. […] All the data were analyzed by PhenoTracker."}, "[2]": {"test_system": "STZ‐induced hyperglycemic 3 × Tg‐AD mice", "test": "Open‐field test in STZ‐treated 3 × Tg‐AD mice", "type": "in vivo, mouse", "conditions": "day 24; 40 mg/kg i.p.", "experimental": "as §1, with “guidelines. […]” for “guidelines.”"}, "[3]": {"test": "Body weight in STZ‐treated 3 × Tg‐AD mice", "type": "in vivo, mouse", "conditions": "40 mg/kg i.p.; among the three groups", "experimental": "For the in vivo LM‐031 treatment experiments, 6‐month‐old male homozygous 3 × Tg‐AD mice (n = 10 per group) were used. Mice were randomly divided into three groups: – streptozocin (STZ), STZ, and STZ/LM‐031. STZ‐induced hyperglycemia was used to accelerate the development of AD phenotype. Mouse body weight and blood glucose level were measured on days 1, 8, 15, 22, and 29. LM‐031 (40 mg/kg) or vehicle (DMSO:Cremophor EL:0.9% saline = 1:2:7) was intraperitoneally injected every day for 22 days from days 15 to 36. All animal procedures were ethically approved by the Institutional Animal Care and Use Committee of National Taiwan Normal University, Taipei, Taiwan (Permit Number: 103002) and were conducted in compliance with the ARRIVE (Animal Research: Reporting In Vivo Experiments) guidelines. Open‐field task, Y‐maze task, Morris water maze task, and immunohistochemistry and image analysis were performed.\nMice harboring APPSwe, PS1M146V, and […] transgenes (3×Tg-AD) (Oddo et al., 2003) were purchased from the Jackson Laboratory (004807; Bar Harbor, ME, USA). […] Mouse body weight was measured and blood glucose level was measured on days 1, 8, 15, 22, and 29 using a blood glucose meter (Bioland Technology, Taipei, Taiwan). […]"}, "[4]": {"test_system": "BDNF", "test": "Western blot of BDNF in ∆K280 TauRD‐DsRed SH‐SY5Y cells", "type": "cell-based, human", "conditions": "1 µM, uninduced 100%", "experimental": "(§2) Total proteins from ∆K280 TauRD-DsRed SH-SY5Y cells were obtained using a RIPA buffer containing 50 mM Tris-HCl (pH8.0), 150 mM NaCl, 2 mM EDTA (pH8.0), 50 mM NaF, 0.1% SDS, 0.5% sodium deoxycholate, 1% NP40, and a protease inhibitor cocktail (Sigma-Aldrich). After sonication and sitting on ice for 20 min, the lysates were centrifuged at 14,000 × g for 30 min at 4°C. Protein concentrations were determined using a protein assay kit (Bio-Rad, Hercules, CA, USA), with albumin as a standard. Total proteins (20 µg) were electrophoresed on 10% or 12% SDS-polyacrylamide gel and transferred onto polyvinylidene difluoride (PVDF) membranes (Sigma-Aldrich) through reverse electrophoresis. […] Subsequently, immune complexes were detected using a horseradish peroxidase-conjugated goat anti-mouse or goat anti-rabbit IgG antibody (1:5000; GeneTex, Irvive, CA, USA) and a chemiluminescent substrate (Millipore)."}, "[5]": {"test_system": "GADD45B", "test": "Western blot of GADD45B in ∆K280 TauRD‐DsRed SH‐SY5Y cells", "type": "cell-based, human", "conditions": "1 µM; induced untreated 65%, uninduced 100%", "experimental": "as §2"}},
  "data": [
    {"smiles": "O=C(c1ccccc1)c1cc2c(O)cccc2oc1=O", "note": "[LM‐031, 3‐benzoyl‐5‐hydroxychromen‐2‐one]", "values": [
      {"measurement": "Morris water maze duration in target quadrant", "setting": "[1]; probe trials 2 and 48 hr (days 34 and 36), STZ 17 s, – STZ 26 s", "result": 24, "unit": "s"},
      {"measurement": "Morris water maze latency to hidden platform", "setting": "[1]; testing on day 34, STZ 39 s, – STZ 21 s", "result": 26, "unit": "s"},
      {"measurement": "Morris water maze latency to hidden platform", "setting": "[1]; training day 3, STZ 43 s, – STZ 31 s", "result": 31, "unit": "s"},
      {"measurement": "Morris water maze latency to hidden platform", "setting": "[1]; training day 4, STZ 40 s, – STZ 26 s", "result": 30, "unit": "s"},
      {"measurement": "open‐field distance traveled and inactive time", "setting": "[2]", "result": "No significant change"},
      {"measurement": "body weight", "setting": "[3]", "result": "No significant change"},
      {"measurement": "BDNF protein level, 14 kDa", "setting": "[4]; induced untreated 82%", "result": 155, "unit": "%"},
      {"measurement": "BDNF protein level, 32 kDa", "setting": "[4]; induced untreated 83%", "result": 101, "unit": "%"},
      {"measurement": "GADD45B protein level", "setting": "[5]", "result": 111, "unit": "%"}
    ]}
  ]
}
